# From US20180228124A1, “ANIMAL LITTER COMPRISING CINNAMIC AND/OR ROSMARINIC COMPOUNDS” (The Clorox Company, priority 2017, published 2018)
# System: ammonia formation
# Assay: Ammonia formation in sodium bentonite clay litter contacted with feline urine, monitored daily
# Conditions: for ammonia at day 11 / inhibition of ammonia formation: FIG. 2; for Day 11 NH3 PPM (mean): treatment dosed at 0.5 g per 100 g of litter, FIG. 3 / FIG. 4 data; for ammonia formation versus virgin clay litter control: 0.5 g per 100 g of litter, FIG. 3; for inhibition of ammonia formation: 0.02 g per 100 g of litter (0.02% by weight)
# Protocol: The efficacy of various anti-oxidant rich spices was tested for ability to inhibit ammonia growth in litter compositions. FIG. 1 illustrates the results for each test that was performed. Each litter substrate included sodium bentonite clay. A control included virgin clay, with no added spice. Each of the other samples tested included a particular spice, dosed onto or into the clay litter substrate at 1.5 g per 100 g of clay substrate (a 1.5% loading of each of the tested spices). The tested spices were cinnamon, peppermint, rosemary, rubbing sage, spearmint, star anise, sumac, thyme, and turmeric. A control was also tested that included no spice at all. Each sample was contacted with 20 mL of feline urine, and then monitored over a period of 11 days, with the mean PPM of ammonia recorded for each day.
# Each of the treatments tested in FIG. 3 were dosed at 0.5 g per 100 g of litter. Many of the other treatments tested were similarly dosed, unless stated otherwise (i.e., 0.5 g per 100 g of litter).
compound,measurement,setting,value
"O=C(O)/C=C/c1ccc(O)c(O)c1 [Caffeic acid, Caffeic Acid]",ammonia at day 11,0.5% caffeic acid (0.5 g per 100 g of litter),less than 60 ppm
same,ammonia at day 11,1% caffeic acid (1 g per 100 g of litter),less than 40 ppm
same,Day 11 NH3 PPM (mean),,47.894 PPM
O=C/C=C/c1ccccc1 [Cinnamaldehyde],Day 11 NH3 PPM (mean),,4.150 PPM
"CCOC(=O)/C=C/c1ccccc1 [Ethyl cinnamate, Ethyl Cinnamate, reference compound]",ammonia formation versus virgin clay litter control,,promotes ammonia (odor) formation
same,Day 11 NH3 PPM (mean),,126.324 PPM
"COc1cc(/C=C/C(=O)O)ccc1O [Ferulic acid, Ferulic Acid]",Day 11 NH3 PPM (mean),,62.182 PPM
O=C(O)CCc1ccccc1 [Hydrocinnamic acid],Day 11 NH3 PPM (mean),,45.720 PPM
"O=C(/C=C/c1ccc(O)c(O)c1)O[C@H](Cc1ccc(O)c(O)c1)C(=O)O [Rosmarinic acid, Rosmarinic Acid]",efficacy of odor inhibition compared with 0.44% borate treated litter,"0.5% rosmarinic acid, FIG. 4",comparable in efficacy to the borate treated litter substrate
same,Day 11 NH3 PPM (mean),,20-30 PPM
"COc1cc(/C=C/C(=O)O)cc(OC)c1O [Sinapic acid, Sinapic Acid]",Day 11 NH3 PPM (mean),,38.428 PPM
"O=C(O)/C=C/c1ccccc1 [Trans-cinnamic acid, Trans-Cinnamic Acid]",Day 11 NH3 PPM (mean),,4.493 PPM
"O.O.O.O.O.O.O.O.O.O.O.O.O=S(=O)([O-])[O-].O=S(=O)([O-])[O-].[Al+3].[K+] [alum, hydrated potassium aluminum sulfate, reference compound]",ammonia formation versus virgin clay litter control,,better than the virgin clay litter control
"CC(C)c1cc2c(c(O)c1O)[C@@]1(C(=O)O)CCCC(C)(C)[C@@H]1CC2 [carnosic acid, Carnosic Acid]",inhibition of ammonia formation,,significant inhibition of ammonia formation
"O=C(O)/C=C/c1ccc(O)cc1 [p-coumaric acid, p-Coumaric Acid]",Day 11 NH3 PPM (mean),,26.199 PPM
"CC(O)C(=O)[O-].[Ag+] (stereo not shown) [silver lactate, reference compound]",ammonia formation versus virgin clay litter control,,better than the virgin clay litter control
"O=C([O-])[O-].O=C([O-])[O-].OO.OO.OO.[Na+].[Na+].[Na+].[Na+] [sodium percarbonate, reference compound]",ammonia formation versus virgin clay litter control,,better than the virgin clay litter control
"C[C@H]1[C@H](C)CC[C@]2(C(=O)O)CC[C@]3(C)C(=CC[C@@H]4[C@@]5(C)CC[C@H](O)C(C)(C)[C@@H]5CC[C@]43C)[C@H]12 [ursolic acid, Ursolic Acid]",inhibition of ammonia formation,,significant inhibition of ammonia formation
borate [reference compound],ammonia at day 11,litter substrate treated with 0.44% borate,76 ppm
